Here are results for 15 compounds from patent publication US12329745B2, “Methods and compositions for treating glucocorticoid excess” (Sparrow Pharmaceuticals, Inc., priority 2022, dated 2025).

Each structure is given as a SMILES string. Like-named read-outs stand apart in the source and are kept apart here.

In data set [1] the target is T1, HSD-1 (Homo sapiens, UniProt P28845). The data set can be described thus: Surface plasmon resonance binding kinetics in presence of NADPH (residence time). As to conditions: 300 μM NADPH, reciprocal of the dissociation rate constant. An excerpt:
Pseudo-irreversible HSD-1 inhibitors can be identified via in vitro enzyme kinetics evaluation, in which they are expected to show longer enzyme residence times compared to other HSD-1 inhibitors. Surface plasmon resonance (SPR) is the resonant oscillation of conduction electrons at the interface between negative and positive permittivity material stimulated by incident light. When a protein is bound to a surface, SPR can be used to detect ligand binding to the protein. […] Association and dissociation of test compounds were monitored in the presence of 300 µM NADPH throughout the experiment.
On the technique in general: Surface plasmon resonance follows binding to a sensor surface in real time, without labels.

The test system of data set [2] is urine tetrahydrocortisone. As to conditions: healthy adults and elderly subjects; 7-21 days; cited from earlier work.
The conditions of data set [3]: cited from earlier work; for plasma exposures after single doses, dose proportionality: low single doses; for estimated target capacity / capacity of saturable distribution: population pharmacokinetics model.
The conditions of data set [4]: cynomolgus monkey liver; cited from earlier work.
For data set [5] the following is noted: INCB-13739 diabetes; R05093151 non-alcoholic fatty liver disease; AZD4017 impaired wound healing; ABT-384 dementia; BI-187004 diabetes; cited from earlier work.
In another data set the target is T2, brain HSD-1 (Homo sapiens, UniProt P28845).
T2 construct: Brain HSD-1 occupancy following a single dose of SPI-62 3 mg; from tissue; host or cells: brain in vivo
T2 sequence (P28845 whole entry): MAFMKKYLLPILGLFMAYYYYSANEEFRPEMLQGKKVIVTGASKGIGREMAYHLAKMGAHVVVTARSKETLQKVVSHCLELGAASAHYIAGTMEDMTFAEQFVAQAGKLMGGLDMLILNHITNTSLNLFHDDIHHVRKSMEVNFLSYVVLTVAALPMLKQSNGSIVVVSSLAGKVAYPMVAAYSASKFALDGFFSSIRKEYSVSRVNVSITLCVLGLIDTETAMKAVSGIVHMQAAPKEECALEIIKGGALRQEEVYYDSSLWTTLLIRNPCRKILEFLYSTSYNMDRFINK
As to conditions: healthy adults; cited from earlier work.

Data set [6] has as its target T1, HSD-1. The data set can be described thus: Target-mediated drug disposition (TMDD) population PK / PK-PD model. Conditions: in vivo.
The next data set has as its target T3, adipose HSD-1 (Homo sapiens, UniProt P28845).
T3 construct: infused continuously into subcutaneous abdominal adipose tissue via microdialysis catheters; from tissue; host or cells: human subcutaneous abdominal adipose tissue, in vivo
Conditions: in vivo; cited from earlier work.

For the next data set, the target named is skin HSD-1 (Homo sapiens, UniProt P28845). As to conditions: in vivo; cited from earlier work.
Chain of skin HSD-1 (P28845 whole entry): as above
In a further data set the target is liver HSD-1 (Homo sapiens, UniProt P28845). As to conditions: same subjects, multiple doses; cited from earlier work.
Chain of liver HSD-1 (P28845 whole entry): as above
A further data set deals with mouse. As to conditions: cited from earlier work.
A further data set relates to rabbit. As to conditions: cited from earlier work.
[7] abbreviates: read-out: Residence Time (converted).

T1 sequence (P28845 whole entry): as above
T3 sequence (P28845 whole entry, the tested form may be a part): as the sequence (P28845 whole entry) above

In the case of `CC(C)(C(=O)N[C@H]1C2CC3CC1C[C@@](C(N)=O)(C3)C2)N1CCN(c2ccc(C(F)(F)F)cn2)CC1` [ABT-384, (1s,3R,4r,5S,7s)-4-(2-methyl-2-(4-(5-(trifluoromethyl)pyridin-2-yl)piperazin-1-yl)propanamido)adamantane-1-carboxamide], the residence time at HSD-1 [1] (setting [7]) was 43.5 min. In addition, the “liver cortisone levels (urine tetrahydrocortisone)” value in [2] is listed as “increased substantially”. Also, in [3] (in vivo), the “plasma levels after multiple doses / steady state, dose proportionality” value is on record as “approximately dose-proportional”. In addition, in data set [3], the “plasma exposures after single doses, dose proportionality” value (“plasma exposures after single doses” for short) was “substantial non-linearity” and the “estimated target capacity / capacity of saturable distribution” value was ~1 mg. Besides, the retention in liver result in data set [4] was “at least 77 days”. Moreover, in [5], the clinical trial efficacy result is recorded as “lack of efficacy”. For the same compound, on brain HSD-1, the “time after cessation of daily administration up to which complete brain HSD-1 inhibition was observed” value is “up to 40 hours”. The “Kd lower than the Ki” value on HSD-1 [6] is on record as “approximately 60 fold”.
With `CC(C)[C@]1(C)SC(N[C@H]2C[C@@H]3CC[C@H]2C3)=NC1=O` [AMG-221, (S,E)-2-(((1S,2S,4R)-bicyclo[2.2.1]heptan-2-yl)imino)-5-isopropyl-5-methylthiazolidin-4-one], the “plasma exposures after single doses” value in data set [3] is “nonlinearity of pharmacokinetics”.
Turning to `CCCSc1nc(N2CCC[C@@H](CC(=O)O)C2)ccc1C(=O)NC1CCCCC1` [AZD4017, (S)-2-(1-(5-(cyclohexylcarbamoyl)-6-(propylthio)pyridin-2-yl)piperidin-3-yl)acetic acid], at adipose HSD-1, the “adipose HSD-1 inhibition after a single dose” value is on record as “demonstrated adipose HSD-1 inhibition”, the “adipose HSD-1 inhibition after repeated dosing” value was “no sustained inhibitory effect” and the “tachyphylaxis of human adipose HSD-1 inhibition with multiple dosing” value is on record as “showed tachyphylaxis”. Also, at skin HSD-1, the “skin HSD-1 inhibition after multiple doses” value is reported as “no skin HSD-1 inhibition”. Besides, the “liver HSD-1 inhibition” value on liver HSD-1 was “maximal”.
Consider `CC(C)(C)c1c(C(=O)NC2C3CC4CC(C3)CC2C4)cnn1-c1ccc(C(=O)O)cc1` (centres unmarked) [AZD8329, 4-(4-(((1r,3r,5r,7r)-adamantan-2-yl)carbamoyl)-5-(tert-butyl)-1H-pyrazol-1-yl)benzoic acid], for which, at HSD-1 [1] (setting [7]), the residence time was 3.45 min. At adipose HSD-1, the “adipose HSD-1 inhibition after repeated dosing” value is “lost” and the “tachyphylaxis of human adipose HSD-1 inhibition with multiple dosing” value is on record as “showed tachyphylaxis”.
Regarding `N#Cc1ccc2c(c1)[C@H]1CCCN(C(=O)c3ccc4nc[nH]c4c3)[C@H]1C2` [BI-187004, (4aR,9aS)-1-(1H-benzo[d]imidazole-6-carbonyl)-2,3,4,4a,9,9a-hexahydro-1H-indeno[2,1-b]pyridine-6-carbonitrile], the “plasma exposures after single doses” value in data set [3] was “substantially below”. The clinical trial efficacy result in data set [5] was “lack of efficacy”.
On to `O=C(CC1(c2ccccc2)C2CC3CC1CC(C2)C3O)N1CC(O)C1` (centres unmarked) [BMS-816336], for which, at HSD-1 [1], the “residence time” value worked out at 2.15 min.
On to `CC(C)(O)c1cccn2c(C3(c4ccc(Cl)cc4)CC3)nnc12` [BMS-823778, 2-(3-(1-(4-chlorophenyl)cyclopropyl)-[1,2,4]triazolo[4,3-a]pyridin-8-yl)propan-2-ol], for which the residence time on HSD-1 [1] (setting [7]) was 2.03 min. Also, in data set [3] (in vivo), the “plasma levels after a single 0.1 or 0.5 mg dose” value is “not detected” and the “plasma levels after multiple doses / steady state, dose proportionality” value is listed as “dose proportional”. For the same compound, the “plasma exposures after single doses” value in [3] is recorded as “less than dose proportional”.
Regarding `CC1(C)[C@@H](OC(=O)CCC(=O)O)CC[C@]2(C)[C@H]3C(=O)C=C4[C@@H]5C[C@@](C)(C(=O)O)CC[C@]5(C)CC[C@@]4(C)[C@]3(C)CC[C@@H]12` [Carbenoxolone], the “GC-induced wound healing impairment” value in the data set with mouse is “prevented”.
For the compound `CC1(C)[C@@H](O[C@H]2O[C@H](C(=O)O)[C@@H](O)[C@H](O)[C@H]2O[C@@H]2O[C@H](C(=O)O)[C@@H](O)[C@H](O)[C@H]2O)CC[C@]2(C)[C@H]3C(=O)C=C4[C@@H]5C[C@@](C)(C(=O)O)CC[C@]5(C)CC[C@@]4(C)[C@]3(C)CC[C@@H]12` [Glycyrrhizin], in the data set on rabbit, the “intraocular pressure increase associated with intravitreal triamcinolone” value was “partially prevented”.
`CNC(=O)c1ccc(-c2ccc(C3(C(=O)N4CC[C@@]5(C4)OC(=O)c4ccccc45)CC3)cc2)cn1` [INCB-13739]: at HSD-1 [1], the “residence time” value came to 4.53 min. In addition, the clinical trial efficacy result in [5] is given as “support efficacy”.
Regarding `CC1CN(CC(=O)NC2C3CC4CC2CC(C(N)=O)(C4)C3)S(=O)(=O)N(c2c(Cl)cc(C(F)(F)F)cc2Cl)C1` [KR-67607, (1s,3R,4s,5S,7s)-4-(2-(6-(2,6-dichloro-4-(trifluoromethyl)phenyl)-4-methyl-1,1-dioxido-1,2,6-thiadiazinan-2-yl)acetamido)adamantane-1-carboxamide], the residence time at HSD-1 [1] (setting [7]) was 8.63 min.
In the case of `CCS(=O)(=O)CCCC12CCC(c3nnc(-c4ccccc4C(F)(F)F)n3C)(CC1)CC2` [MK-0736, 3-(4-(3-(ethylsulfonyl)propyl)bicyclo[2.2.2]octan-1-yl)-4-methyl-5-(2-(trifluoromethyl)phenyl)-4H-1,2,4-triazole], the “plasma exposures after single doses” value in [3] is “non-linear, saturable distribution PK”.
In the case of `F[C@H]1C[C@@](c2ccc(Cl)cc2)(c2nnc(C3CC3)n2C2CC2)C1` [MK-0916, 3-((1s,3s)-1-(4-chlorophenyl)-3-fluorocyclobutyl)-4,5-dicyclopropyl-4H-1,2,4-triazole], the residence time at HSD-1 [1] (setting [7]) is 3.25 min. For the same compound, the “plasma levels after multiple doses / steady state, dose proportionality” value in data set [3] (in vivo) is reported as “approximately dose-proportional”. In addition, in [3], the “plasma exposures after single doses” value is “substantial non-linearity” and the “estimated target capacity / capacity of saturable distribution” value is recorded as ~3 mg.
Take `N#Cc1ccc(-c2ccc(S(=O)(=O)Nc3cccc(N)n3)cc2)cc1` [PF915275]: the “residence time” value on HSD-1 [1] amounted to 5.07 min. Besides, the “GC-induced wound healing impairment” value in the data set with mouse is listed as “prevented”.
As for `O=C(c1csc(-c2cn[nH]c2)c1)N1[C@@H]2CC[C@H]1C[C@](O)(c1ncccn1)C2` [UE-2343, (5-(1H-pyrazol-4-yl)thiophen-3-yl)((1R,3r,5S)-3-hydroxy-3-(pyrimidin-2-yl)-8-azabicyclo[3.2.1]octan-8-yl)methanone], the “residence time” value at HSD-1 [1] is 9.05 min. Besides, the “plasma levels after single doses of 2 and 5 mg” value in data set [3] (in vivo) is recorded as “below the level of quantification”. Also, the “plasma exposures after single doses” value in data set [3] is reported as “greater than dose-proportional”. The “mean maximum plasma concentration” value in data set [3] (single 10 mg dose) is 40.4 ng/mL.

The residence time is the mean lifetime of the complex, commonly the reciprocal of the off-rate.
